From patent US5798372A, “Method for preventing onset of restenosis after angioplasty employing a retinoid” (Allergan, priority 1997, dated 1998) come the findings set out here.

Some results are limits rather than exact numbers.

The subject of test [1] is endothelial cells (canine aorta). In words: β-FGF-induced endothelial cell proliferation, 3H-thymidine incorporation. To be noted: Canis lupus familiaris, Table 3, read-out: ED50 FOR ENDOTHELIAL Cells, β-FGF. The format is cell-based. As for the experimental part: (§1) The effect of 1% serum on DNA synthesis by endothelial or smooth muscle cells using ^3 H-thymidine incorporation was measured. For measuring the effectiveness of retinoids in inhibiting endothelial or smooth muscle cell proliferation induced by certain mitogens, i.e., serotonin or β-FGF the indicated concentrations were added to the media instead of 1% serum. Primary cells isolated from canine aorta were used for these studies. Unlike the typical cell lines (e.g. NIH 3T3 cells, etc.) 6-7 weeks are required to isolate and grow these primary cells in sufficient number to perform a single experiment. For the following studies, the primary cells (passages 2-4) were plated on 35×10 mm tissue culture dishes in 10% fetal bovine serum (FBS) and incubated. After 72 hours of growth the medias was replaced with 0.1% FBS for synchronization and incubated for additional 72 hours. Then 1% serum was added and incubated for 20 hours followed by the addition of 1μCi of ^3 H-thymidine. Four hours after the addition of 3H-thymidine the DNA was precipitated and the amount of ^3 H-thymidine incorporated was measured. This value is reported as the serum or serotonin or β-FGF stimulated value for cellular proliferation and is expressed as a percentage of baseline ^3 H-thymidine incorporation.
(§2) To examine the antiproliferative effect of retinoids, they were dissolved in 100% ethanol and then added at the indicated final concentrations. The compounds were added at the time of adding 1% serum or serotonin or β-FGF to stimulate the cells. […] After 20 hours of incubation with retinoids and 1% serum or serotonin or β-FGF, the ^3 H-thymidine incorporation was measured.
(§3) Certain of the retinoids were then tested for mitogen-induced cellular proliferation, utilizing serotonin (5HT) and β-FGF as such mitogens. In this testing, as reported in Table 3, below, the same dosages were evaluated for their effect on mitogen-induced cellular proliferation (The results are reported as ED50 and compared to the ED50 for serum-induced smooth muscle and endothelial cell growth).
A general note: Uptake of a labelled nucleoside into DNA is a usual measure of proliferation.

Test [2] shares this test system. Nature of the test: Serum (1%)-induced endothelial cell proliferation, 3H-thymidine incorporation. Format: cell-based. The settings on record: for order of potency for endothelial cells: from Table 2. On the procedure:
as §1
(§4) To examine the antiproliferative effect of retinoids, they were dissolved in 100% ethanol and then added at the indicated final concentrations. The compounds were added at the time of adding 1% serum or serotonin or β-FGF to stimulate the cells. (The maximal final concentration of ethanol in culture media was 1% which is non-cytotoxic to endothelial or smooth muscle cells). After 20 hours of incubation with retinoids and 1% serum or serotonin or β-FGF, the ^3 H-thymidine incorporation was measured.
(§5) In this experimental dosages ranging between 0.01 and 100 μM were evaluated for the effect of AGN 191183 on cell growth.
(§6) The other retinoids, disclosed above, were also tested for their effect on smooth muscle and endothelial cell growth at the same dosages as for AGN 191183. Table 2 reports the ED50 for each of these retinoids.

Test [3] concerns smooth muscle cells (canine aorta). Nature of the test: Serotonin-induced smooth muscle cell proliferation, 3H-thymidine incorporation. To be noted: Canis lupus familiaris, Table 3, read-out: ED50 FOR SMOOTH MUSCLE CELLS, Serotonin. The format is cell-based. On the procedure: as §1, §2, §3
Test [4] shares this test system. In words: Serum (1%)-induced smooth muscle cell proliferation, 3H-thymidine incorporation. The settings on record: for IC50: Canis lupus familiaris; for rank order potency on smooth muscle cells: from Table 2. The format is cell-based. As for the experimental part: as §1, §4, §5, §6
Test [5] has the same test system. Nature of the test: β-FGF-induced smooth muscle cell proliferation, 3H-thymidine incorporation. To be noted: Canis lupus familiaris, Table 3, read-out: ED50 FOR SMOOTH MUSCLE CELLS, β-FGF. Format: cell-based. On the procedure: as §1, §2, §3
The subject of test [6] is endothelial cells (canine aorta). In words: Serotonin-induced endothelial cell proliferation, 3H-thymidine incorporation. Format: cell-based. To be noted: Canis lupus familiaris, Table 3, read-out: ED50 FOR ENDOTHELIAL Cells, Serotonin. On the procedure:
as §1, §2, §3

In another test the test system is RAR and RXR receptor. Nature of the test: RAR vs RXR agonist activity (retinoid selectivity). Format: biochemical. To be noted: Table 2; RAR selective agonist preferably has RAR vs RXR activity ratio of at least 5.
Test [7] concerns endothelial cells (canine aorta). Nature of the test: Serum (1%)-induced endothelial cell proliferation, 3H-thymidine incorporation. The format is cell-based. The settings on record: Canis lupus familiaris, 1% serum, 100% = 1739 ± 71 cpm/10^6 cells, serum stimulated 1246 ± 91, read-out: % ENDOTHELIAL (cell growth, % of baseline 3H-thymidine incorporation).
Test [8] has as its system smooth muscle cells (canine aorta). In words: Serum (1%)-induced smooth muscle cell proliferation, 3H-thymidine incorporation. Format: cell-based.
Where [9] appears, read: Canis lupus familiaris, Endothelial cell, serum induced, Table 2, read-out: ED50 FOR ENDOTHELIAL CELL (concentration at which proliferation is inhibited by 50%).
Where [10] appears, read: serum induced, Table 2, read-out: ED50 FOR SMOOTH MUSCLE CELLS (concentration at which proliferation is inhibited by 50%).
Where [11] appears, read: Canis lupus familiaris, Endothelial cell, read-out: ED50 FOR ENDOTHELIAL CELL (concentration at which proliferation is inhibited by 50%).
The mark [12] stands for this setting: read-out: ED50 FOR SMOOTH MUSCLE CELLS (concentration at which proliferation is inhibited by 50%).

Excerpt for RAR and RXR receptor: (Of course, pan agonists show agonist activity at both the RAR and RXR receptor.)
A pan agonist will have activity at both of the RAR and RXR receptor, e.g. similar potency at the RAR and RXR receptor.

As for `CC1=C(/C=C/C(C)=C/C=C/C(C)=C\C(=O)O)C(C)(C)CCC1` [AGN 190013, (2Z,4E,6E,8E)-3,7-dimethyl-9-(2,6,6-trimethyl-1-cyclohexen-1-yl)-2,4,6,8-nonatetraenoic acid], the IC50 in test [1] is 0.009 µM; in test [2] (Canis lupus familiaris, Endothelial cell, serum induced, Table 3, read-out: ED50 FOR ENDOTHELIAL Cells, Serum), 31.5 µM; in [3] it was 5 µM; in test [4] (serum induced, Table 3, read-out: ED50 FOR SMOOTH MUSCLE CELLS, Serum) it was 7.4 µM; in test [5], above 100 µM; in test [6], 0.0092 µM.
Take `CC1=C(/C=C/C#Cc2ccc(C(=O)O)cc2)C(C)(C)CCC1` [AGN 190121, (E)-4-[4-(2,6,6-trimethyl-1-cyclohexen-1-yl)but-2-en-1-ynyl] benzoic acid]: the IC50 in test [2] (setting [9]) was found to be 23 µM; in test [4] (setting [10]) it was 46 µM. The SELECTIVITY entry with RAR and RXR receptor is “RAR”.
On to `CC1(C)CCC(C)(C)c2cc(C#Cc3ccc(C(=O)O)cc3)ccc21` [AGN 190205, 4-[2-(5,6,7,8-tetrahydro-5,5,8,8-tetramethyl-2-naphthalenyl)ethynyl] benzoic acid], for which the IC50 in test [2] (setting [11]) is 6.8 µM; in test [4] (setting [12]) it was 8.95 µM. In test [2] (serum induced), the “order of potency for endothelial cells” value is given as “AGN 192013>AGN 190205=AGN 191183”. In the test on RAR and RXR receptor, the SELECTIVITY entry is “RAR”.
Regarding `C/C(=C\c1ccc(C(=O)O)cc1)c1ccc2c(c1)C(C)(C)CCC2(C)C` [AGN 191183, (E)-4-[2-(5,6,7,8-tetrahydro-5,5,8,8-tetramethyl-2-naphthalenyl)-1-propen-1-yl] benzoic acid], the activity at 0.1 µM in test [7] (0.1 μM) was 959 ± 115%; in [8] (Canis lupus familiaris, 0.1 μM, 1% serum, 100% = 2108 ± 165 cpm/10^6 cells, serum stimulated 725 ± 170, read-out: % SMOOTH MUSCLE (cell growth, % of baseline 3H-thymidine incorporation)), 219 ± 22%. In addition, the activity at 0.5 µM in test [7] (0.5 μM) was found to be 840 ± 108%; in test [8] (Canis lupus familiaris, 0.5 μM, 1% serum, 100% = 2108 ± 165 cpm/10^6 cells, serum stimulated 725 ± 170, read-out: % SMOOTH MUSCLE (cell growth, % of baseline 3H-thymidine incorporation)), 205 ± 17%. Further, the activity at 1 µM in test [7] (1 μM) worked out at 815 ± 171%; in test [8] (Canis lupus familiaris, 1 μM, 1% serum, 100% = 2108 ± 165 cpm/10^6 cells, serum stimulated 725 ± 170, read-out: % SMOOTH MUSCLE (cell growth, % of baseline 3H-thymidine incorporation)), 185 ± 10%. The activity at 5 µM in test [7] (5 μM) amounted to 686 ± 40%; in test [8] (Canis lupus familiaris, 5 μM, 1% serum, 100% = 2108 ± 165 cpm/10^6 cells, serum stimulated 725 ± 170, read-out: % SMOOTH MUSCLE (cell growth, % of baseline 3H-thymidine incorporation)), 182 ± 3%. Also, the activity at 10 µM in [7] (10 μM) came to 406 ± 32%; in test [8] (Canis lupus familiaris, 10 μM, 1% serum, 100% = 2108 ± 165 cpm/10^6 cells, serum stimulated 725 ± 170, read-out: % SMOOTH MUSCLE (cell growth, % of baseline 3H-thymidine incorporation)), 126 ± 18%. In addition, the activity at 50 µM in test [7] (50 μM) is 17 ± 2%; in [8] (Canis lupus familiaris, 50 μM, 1% serum, 100% = 2108 ± 165 cpm/10^6 cells, serum stimulated 725 ± 170, read-out: % SMOOTH MUSCLE (cell growth, % of baseline 3H-thymidine incorporation)), 137 ± 25%. Also, the activity at 100 µM in test [7] (100 μM) turned out to be 9.3 ± 2.3%; in test [8] (Canis lupus familiaris, 100 μM, 1% serum, 100% = 2108 ± 165 cpm/10^6 cells, serum stimulated 725 ± 170, read-out: % SMOOTH MUSCLE (cell growth, % of baseline 3H-thymidine incorporation)), 77 ± 28%. The values for the IC50 in test [2] (setting [11]) and in [4] (setting [12]) were 6.15 µM and 0.03 µM, respectively. Further, in test [2] (serum induced), the “order of potency for endothelial cells” value is “AGN 192013>AGN 190205=AGN 191183”. Also, the SELECTIVITY result with RAR and RXR receptor is “RAR”. Further, in [8] (Canis lupus familiaris, 0.01 μM, 1% serum, 100% = 2108 ± 165 cpm/10^6 cells, serum stimulated 725 ± 170, read-out: % SMOOTH MUSCLE (cell growth, % of baseline 3H-thymidine incorporation)), the activity at 0.01 µM is 376 ± 17%. Further, the activity at 0.05 µM in [8] (Canis lupus familiaris, 0.05 μM, 1% serum, 100% = 2108 ± 165 cpm/10^6 cells, serum stimulated 725 ± 170, read-out: % SMOOTH MUSCLE (cell growth, % of baseline 3H-thymidine incorporation)) is 348 ± 95%. For the same compound, the “rank order potency on smooth muscle cells” value (“rank order potency” below) in test [4] (serum induced) is “AGN 191659=191183>AGN 192327>AGN 191985>AGN 192326”. Moreover, in test [4] (smooth muscle and endothelial cells (also A2), serum induced), the “effectiveness for inhibiting the growth of smooth muscle and endothelial cells” value was “most effective retinoid for inhibiting the growth of both smooth muscle and endothelial cells”.
Consider `C/C(=C\c1ccc(C(=O)O)s1)c1cc2c(cc1C)C(C)(C)CCC2(C)C` [AGN 191659, (E)-5-[2-(5,6,7,8-tetrahydro-3,5,5,8,8-pentamethyl-2-naphthalenyl)-1-propen-1-yl] thiophene-2-carboxylic acid], for which the IC50 was 39 µM in [2] (setting [9]) and 0.038 µM in [4] (setting [10]). In addition, the SELECTIVITY result in the test with RAR and RXR receptor is on record as “PAN AGONIST”. Besides, the “rank order potency” value in [4] (serum induced) is “AGN 191659=191183>AGN 192327>AGN 191985>AGN 192326”.
As for `C/C(=C\c1cc(C(=O)O)cs1)c1cc2c(cc1C)C(C)(C)CCC2(C)C` [AGN 191701, reference compound], the IC50 worked out at 28.5 µM in test [2] (serum induced, Table 2, read-out: ED50 FOR ENDOTHELIAL CELL (concentration at which proliferation is inhibited by 50%)) and 18 µM in test [8] (setting [10]). Also, the SELECTIVITY result in the test with RAR and RXR receptor is listed as “RXR”.
As for `CC(C)(C)c1ccc(C#Cc2ccc(C(=O)O)cc2)cc1OC1CCCCO1` (centres unmarked) [AGN 192326, 4-[2-(3-(2-tetrahydropyranyl)oxy)-(4-(1,1-dimethylethyl)phenyl)ethynyl]benzoic acid], the IC50 in test [2] (setting [9]) is 16.5 µM; in [4] (setting [10]), 6.5 µM. Also, the SELECTIVITY result in the test with RAR and RXR receptor was “RAR”. Moreover, the “rank order potency” value in test [4] (serum induced) was “AGN 191659=191183>AGN 192327>AGN 191985>AGN 192326”.
Consider `CC(C)(C)c1ccc(C#Cc2ccc(C(=O)O)cn2)cc1OC1CCCCO1` (centres unmarked) [AGN 192327, 6-[2-(3-(2-tetrahydropyranyl)oxy)-(4-(1,1-dimethylethyl)phenyl)ethynyl]-3-nicotinic acid], for which the IC50 stood at 29 µM in [2] (setting [9]) and 4 µM in test [4] (setting [10]). In addition, the SELECTIVITY result in the test with RAR and RXR receptor is “RAR”. Moreover, the “rank order potency” value in test [4] (serum induced) was “AGN 191659=191183>AGN 192327>AGN 191985>AGN 192326”.
